Reference: patent US10035810B2, “5,6-dihydro-4H-benzo[b]thieno-[2,3-d]azepine derivative” (PULMOCIDE LIMITED, priority 2014, dated 2018)

Legend:
hRSV/A/Long = assay: RSV infection in cotton rats: virus titre in lung homogenate (plaque assay); format: in vivo, cotton rats (Sigmodon hispidus)
RSV A2 = assay: Virus titre in air-liquid interface (ALI) cultured bronchial epithelial cells (plaque assay); format: cell-based, respiratory syncytial virus
Description: Assessment of Virus Titre in Air-Liquid Interface (ALI) Cultured Bronchial Epithelial Cells
ALI cultured human bronchial epithelial cells were sourced from Epithelix Sàrl (Geneva, Switzerland) and maintained by changing the basal media every 3-4 days, whilst the apical surface was washed once weekly with PBS. On day 0, the apical surface of each well was washed once with sterile PBS (300 μL) and the inserts were transferred to new 24-well plates containing fresh MucilAir culture medium (780 μL; EP04MM). RSV A2 (50 μL; diluted in MucilAir culture medium to give a final MOI of 0.01) was added to cells for 1 hr (37° C./5% CO2). For the purposes of standardizing MOI calculations, each MucilAir insert was estimated to contain 2×10^5 apical facing cells per well. Virus inoculum was removed with a pipette and inserts were washed twice with sterile PBS (300 μL).
Sampling was conducted by adding sterile PBS (300 μL) to the apical surface of each well for 5 min. The apical sample was then removed and transferred to tubes containing 50% sucrose dissolved in PBS (100 μL) before being stored at −80° C. This harvesting procedure was repeated daily beginning on day 0 and concluding on day 7. […]
Virus titre was quantified by plaque assay. […] Plaques were counted by eye and confirmed using light microscopy, allowing the calculation of plaque forming units per mL.

RSV A2 F-protein = assay: RSV F protein expression in BEAS2B bronchial epithelial cells; format: cell-based; settings: human respiratory syncytial virus, BEAS-2B, 72 h, read-out: RSV A2 F-protein IC50
Description: Assessment of RSV F Protein Expression in BEAS2B Bronchial Epithelial Cells
An early event which follows the infection of epithelial cells by RSV is the expression of RSV F-protein on the cells' surface. BEAS2B cells (SV40-immortalised human bronchial epithelial cell line) were grown in 96 well plates. Once more than 70% confluent, cells were infected with RSV A2 (#0709161v, NCPV, Public Health England, Wiltshire) at an MOI of 0.01 in clear RPMI-1640 medium (Life technologies, Paisley, UK) with 2% FBS (Life technologies, Paisley, UK), and incubated for 3 days (37° C./5% CO2).
Supernatant was aspirated and the cells were fixed with 4% formaldehyde (100 μL in PBS solution) for 20 min, washed 3 times with washing buffer (200 μL; PBS containing 0.05% Tween-20) and incubated with blocking solution (100 μL; 5% Marvel milk in PBS) for 1 hr. […] The resultant signal was determined colourimetrically (OD: 450 nm with a reference wavelength of 655 nm) in a microplate reader (Multiskan FC®, ThermoFisher Scientific). […] After washing with PBS (200 μL) three times, 1% SDS (100 μL) was added to each well, and plates were shaken lightly for 1 hr prior to reading the absorbance at 595 nm. The measured OD450-655 readings were corrected for cell number by dividing the OD450-655 by the OD595 readings. […]

Cc1cnc(N2CC3(CCOCC3)C2)c(C(=O)Nc2ccc(C(=O)N3CCc4cc(C(=O)Nc5c(C)cccc5F)sc4-c4ccccc43)cc2)c1 [Compound (I), N-(2-fluoro-6-methylphenyl)-6-(4-(5-methyl-2-(7-oxa-2-azaspiro[3.5]nonan-2-yl)nicotinamido)benzoyl)-5,6-dihydro-4H-benzo[b]thieno[2,3-d]azepine-2-carboxamide]
Virus titre in the lungs (in words) (hRSV/A/Long; RSV A2 infected cotton rats): completely inhibited virus titre | Virus titre in lung homogenates (in words) (hRSV/A/Long; infected cotton rats, day 4): potent dose-dependent inhibition of virus titre | Inhibition of RSV titre in ALI culture (in words) (RSV A2; early intervention, daily day 0 to day 7, 0.1 μg/mL, over 7 days): complete inhibition | Virus titre in ALI culture (in words) (RSV A2; late intervention, administered from day 3, days 6 and 7 post infection): dramatic reduction of virus titre | IC50 (RSV A2 F-protein): 0.17 nM
